{"source": "patent US20110034419A1", "about": "“Cardioprotective Drugs and Diagnostics for Assessing Risk of Cardiovascular Disease” (priority 2009, published 2011)", "key": {"[1]": {"system": "Akt activation in HUVECs", "experiment": "Multiplex bead array assay of Akt phosphorylation", "format": "cell-based, human", "conditions": "PTX 100 ng/ml 12 h, 3 min; for Inhibition of HDL-induced activation of Akt: antagonists added 15 min before HDL (containing 200 nM S1P); for Inhibition of S1P-induced activation of Akt: antagonists added 15 min before S1P (200 nM)", "experimental": "(§1) The effect of S1P and HDL on activation of Erk1/2 (A-D) and Akt (E-H) in HUVECs was determined by multiplex bead array assay. In A-D, the values for the fold difference in Erk1/2 phosphorylation were derived from the level of phosphoErk1/2 fluorescence in S1P or HDL treated cells divided by the level of phosphoErk1/2 fluorescence in control cells. In E-G, the values for the fold increase in Akt phosphorylation were derived from the level of phosphoAkt fluorescence in cells treated with S1P or HDL divided by the level of phosphoAkt fluorescence measured in control cells. The data depicted in panels A, C, E and G is based on treating HUVECs for the indicated times with 833 nM S1P or 333 μg/ml HDL (containing 133 nM S1P). The data depicted in panels B, D, F and H is based on treating HUVECs with indicated concentrations of S1P or HDL for 3 min. The level of S1P in the 3-fold dilutions of HDL tested in panel H ranged from 12-337 nM. Data are shown from a representative experiment.\n(§2) In A and B, pertussis toxin (PTX, 100 ng/ml) or the PTX buffer was added to endothelial cell basal medium (EBM) during the final 12 h of serum starvation. BSA, S1P (200 nM) or HDL (containing 200 nM S1P) were then added to the medium and allowed to incubate with the cells for 3 min. In C and D, the S1P1 antagonist 857390 or the S1P1/S1P3 antagonist or vehicle were added to the medium 15 min prior to addition of S1P or HDL and allowed to incubate with the cells for 3 min. The graphed values were derived from the level of phosphoErk1/2 or phosphoAkt fluorescence in S1P- or HDL-treated cells divided by the level of phosphoErk1/2 or phosphoAkt fluorescence in BSA treated cells. Data are shown from representative experiments, antagonists and inhibitor experiments were performed 2-4 times (e.g. PTX, n=3; S1P1 antagonist, n=4; S1P1/S1P3 antagonist, n=2). Each data point is an average from two independent wells.\nApproach: A bead-based multiplex assay will be used to determine changes in phosphorylated Erk1/2, phosphorylated Akt, and total Erk and total Akt in endothelial cells in response to treatments with HDLs from dislipidemic subjects and synthetic HDLs containing defined amounts of S1P. These assays will be conducted essentially as described by (1). Briefly, HUVECs will be seeded into 24 well dishes (Corning) at 2×10^5 cells per well and grown for 18 h in endothelial growth medium-2 (EGM-2, Lonza). […] The cells will be extracted with Bio-Plex cell lysis buffer (Bio-Rad, Hercules, Calif.) and protein concentration determined by Bio-Rad DC Protein Assay (Bio-Rad). Levels of phospho-Erk1/2, total-Erk1/2 and phospho-Akt in the extracts will be determined by multiplex bead assay using kits (Bio-Rad) and a Bioplex-200 instrument (Bio-Rad)."}, "[2]": {"system": "endothelial cell monolayers (HUVECs)", "experiment": "Electrical Cell Substrate Impedance Sensing (ECIS) assay of transendothelial electrical resistance (TEER)", "format": "cell-based, human", "conditions": "for Inhibition of the TEER response to HDL / Inhibition of the TEER response to S1P: PTX 1 μg/ml, antagonists 10 μM; for Inhibition of the TEER response to HDL: HDL 1000 or 621 μg/ml; for Inhibition of the TEER response to S1P: S1P 833 nM or 250 nM", "experimental": "Confluent endothelial monolayers were grown under serum-free conditions until a minimal TEER plateau had been reached. The cells were then incubated with S1P or HDL in the presence or absence of PTX (A and B) or S1P1 antagonists (C and D). In A and B, S1P was used at 833 nM, HDL at 1000 μg/ml (containing 400 nM S1P) and PTX at 1 μg/ml. In C and D, S1P was used at 250 nM, HDL at 621 μg/ml (containing 250 nM S1P), the S1P1 antagonist 857390 at 10 μM and the S1P1/S1P3 antagonist VPC23019 at 10 μM. As controls, monolayers were treated with BSA-containing serum free medium (SFM) plus or minus vehicle buffer. Each of the TEER tracings shown is an average of two replicate wells and representative of three independent experiments. Impedance values were normalized by dividing each value by the level of impedance measured just prior to the addition of effectors. […]\nECIS: Electrical cell substrate impedance sensing (ECIS) assays will be conducted essentially as described in (1). Briefly, 8W10E+ electrode arrays will be pre-coated with human fibronectin (Invitrogen, Carlsbad, Calif.) at 100 μg/ml in 0.15M NaCl, 0.01M Tris, pH 8.0. HUVECs in EGM-2 medium will be seeded into the wells at a density of 1×10^5 cells per well. Electrical resistance (impedance) will be measured every […] at a frequency of 15 kHz. For every 48 h of culture, 50% volume of medium will be replaced with fresh EGM-2. When the electrical resistance reaches a maximal plateau (−3 days) the medium will be replaced with serum-free endothelial basal medium (EBM; Lonza) containing 1× penicillin-streptomycin-glutamine (Invitrogen). Electrical resistance will be monitored until a minimal plateau is reached (˜24 h). Either HDL from CCHS subjects (depleted of albumin and apoB lipoproteins) or synthetic HDLs will be introduced into the culture medium by removing a volume corresponding to that of the HDL to be added. The maximum volume of each HDL added will not exceed 1/25 of the 400 μl volume of conditioned culture medium in each well. For experiments evaluating the effects of pertussis toxin (PTX), PTX (100 ng/ml) or the PTX buffer (50% glycerol with 50 mM Tris, 10 mM glycine, and 0.5M NaCl, pH 7.5) will be added to EBM during the final 12 h of serum starvation. S1P or HDL will then be added to the medium. Electrical resistance will be monitored through 5 h post addition of agents."}, "[3]": {"system": "Erk1/2 activation in HUVECs", "experiment": "Multiplex bead array assay of Erk1/2 phosphorylation", "format": "cell-based, human", "conditions": "for Inhibition of HDL-induced activation of Erk1/2 / Inhibition of S1P-induced activation of Erk1/2: PTX 100 ng/ml 12 h, 3 min; for Inhibition of HDL-induced activation of Erk1/2: antagonists added 15 min before HDL (containing 200 nM S1P); for Inhibition of S1P-induced activation of Erk1/2: antagonists added 15 min before S1P (200 nM)", "experimental": "as §1, §2\nApproach: A bead-based multiplex assay will be used to determine changes in phosphorylated Erk1/2, phosphorylated Akt, and total Erk and total Akt in endothelial cells in response to treatments with HDLs from dislipidemic subjects and synthetic HDLs containing defined amounts of S1P. These assays will be conducted essentially as described by (1). Briefly, HUVECs will be seeded into 24 well dishes (Corning) at 2×10^5 cells per well and grown for 18 h in endothelial growth medium-2 (EGM-2, Lonza). The medium will then be replaced with endothelial basal medium (EBM) containing 0.1% FBS and the cells grown for 24 h. The medium will then be supplemented with HDL samples (i.e., CCHS subject serum-derived HDL freed of albumin- and apoB-containing lipoproteins) or synthetic HDLs (containing defined amounts of S1P). As described above, this will be done by removing a volume of the conditioned culture medium corresponding to that of the HDL to be added. The cells will be extracted with Bio-Plex cell lysis buffer (Bio-Rad, Hercules, Calif.) and protein concentration determined by Bio-Rad DC Protein Assay (Bio-Rad). Levels of phospho-Erk1/2, total-Erk1/2 and phospho-Akt in the extracts will be determined by multiplex bead assay using kits (Bio-Rad) and a Bioplex-200 instrument (Bio-Rad)."}, "[4]": {"system": "dermal fibroblasts", "conditions": "literature (Bu et al., 2006); cited from earlier work"}, "[5]": {"system": "endothelial cell monolayers (HUVECs)", "conditions": "literature (Schaphorst et al.; Xu et al.); cited from earlier work"}, "[6]": {"system": "lung capillary leakage", "conditions": "mice, lipopolysaccharide treatment; literature (Peng et al.); cited from earlier work"}}}
{"molecule": "CCCCCCCCc1cccc(NC(=O)[C@H](N)COP(=O)(O)O)c1", "note": "[VPC23019]", "values": [{"measurement": "Inhibition of HDL-induced activation of Akt", "setting": "[1]", "value": "inhibited"}, {"measurement": "Inhibition of S1P-induced activation of Akt", "setting": "[1]", "value": "inhibited"}, {"measurement": "Inhibition of the TEER response to HDL", "setting": "[2]", "value": "inhibited"}, {"measurement": "Inhibition of the TEER response to S1P", "setting": "[2]", "value": "inhibited"}, {"measurement": "Inhibition of HDL-induced activation of Erk1/2", "setting": "[3]", "value": "inhibited"}, {"measurement": "Inhibition of S1P-induced activation of Erk1/2", "setting": "[3]", "value": "inhibited"}]}
{"molecule": "pertussis toxin [PTX]", "values": [{"measurement": "Inhibition of HDL-induced activation of Akt", "setting": "[1]", "value": "inhibited"}, {"measurement": "Inhibition of S1P-induced activation of Akt", "setting": "[1]", "value": "inhibited"}, {"measurement": "Inhibition of the TEER response to HDL", "setting": "[2]", "value": "completely abrogated"}, {"measurement": "Inhibition of the TEER response to S1P", "setting": "[2]", "value": "inhibited"}, {"measurement": "Inhibition of HDL-induced activation of Erk1/2", "setting": "[3]", "value": "inhibited"}, {"measurement": "Inhibition of S1P-induced activation of Erk1/2", "setting": "[3]", "value": "inhibited"}]}
{"molecule": "CCCCCCCCCCCCCCC[C@@H](O)[C@@H](N)COP(=O)(O)O", "note": "[DH-S1P, dihydro-S1P]", "values": [{"measurement": "Activation of ERK1/2 in dermal fibroblasts", "setting": "[4]", "value": "mediate activation ERK1/2"}, {"measurement": "Induction of MMP1 expression in dermal fibroblasts", "setting": "[4]", "value": "induction of matrix metalloproteinase 1 (MMP1) expression"}]}
{"molecule": "CCCCCCCCCCCCC/C=C/[C@@H](O)[C@@H](N)COP(=O)(O)O", "note": "[S1P, sphingosine 1-phosphate]", "values": [{"measurement": "Effect on endothelial barrier activity (TEER) in cultured endothelial cells", "setting": "[5]", "value": "increase endothelial barrier activity"}, {"measurement": "Activation of ERK1/2 in dermal fibroblasts", "setting": "[4]", "value": "not reproduced"}, {"measurement": "Induction of MMP1 expression in dermal fibroblasts", "setting": "[4]", "value": "not reproduced"}, {"measurement": "Effect on transendothelial electrical resistance (TEER)", "setting": "[2]; confluent endothelial monolayers in serum free medium, substance added alone", "value": "dose-dependent increase in TEER"}, {"measurement": "Effect on Erk1/2 phosphorylation", "setting": "[3]; 833 nM S1P or 333 μg/ml HDL, time course", "value": "transient increase in Erk1/2 phosphorylation"}, {"measurement": "Dose dependence of Erk1/2 activation response", "setting": "[3]; 3 min treatment", "value": "dose dependent"}, {"measurement": "Effect on lung capillary leakage", "setting": "[6]", "value": "greatly reduces lung capillary leakage"}]}
